According to patent US11458212B2, “Molecular imaging of cancer cells in vivo” (H. Lee Moffitt Cancer Center and Research Institute, Inc., priority 2011, dated 2022):
Entries after “also recorded” stand apart in the source; their conditions may differ. One block for each compound: values may come before it. Where a SMILES comes first, the peptide text is derived from it. Primed or numbered codes have the meaning given here. The star is where a group is joined. Adapalene = Adapaleneyl (acyl group from adapalene), COc1ccc(-c2ccc3cc(C(=O)*)ccc3c2)cc1C12CC3CC(CC(C3)C1)C2; Propyl(2R-PamO,3-PamO) = CCCCCCCCCCCCCCCC(=O)OC[C@H](C*)OC(=O)CCCCCCCCCCCCCCC; X2 = CCCCCCCCCCCCCCCC(=O)OCC(C*)OC(=O)CCCCCCCCCCCCCCC; X1 = CC(=O)NCCCOCCOCCOCCCNC(=O)COCC(=O)*; Palmitoyl = CCCCCCCCCCCCCCCC(=O)*; Ahx = NCCCCCC(=O)O; Dhc(Pam)2″ = lipid

Key:
[1] = molecular target: TLR2 (Homo sapiens, UniProt O60603); assay: In vitro TLR2 functional bioassay (NF-κB luciferase, HEK293/hTLR2 cells); format: cell-based; set-up: host or cells: HEK293 stably transfected with pUNO-hTLR2, transiently transfected with the pNifty-Luc reporter; details: for fold of enhancement vs SAA at 1 μg/mL / fold of enhancement vs SAA at 10 μg/mL: compound at 1 μg/mL; for TLR2 Agonist Activity: screened at 1 μg/mL; for EC50: log(agonist) vs. normalized response, doses 0.01 ng/mL to 1 μg/mL, read-out: EC50
From the text: In Vitro TLR2 Functional Bioassay The in vitro TLR2 functional bioassay was developed and optimized for use in screening soluble compound libraries to identify both TLR2 agonists and antagonists. In this study, the TLR2 functional bioassay was used as a fast high throughput screening to identify TLR2 agonist ligands by measuring the inducing activity of NF-κB. HEK293/hTLR2 cells, highly overexpressing human TLR2, were used along with the parental HEK293, cells as a negative control. Cells were seeded at a density of 40,000 per well using a WellMate® Microplate dispenser (Thermo Fischer Scientific/Matrix) in black 96-well plates with opaque white wells (Perkin Elmer Wallac, Waltham, Mass.) and then incubated at 37° C. On day 2, the cells were transiently transfected with pNifty-Luc (InvivoGen), an NF-κB inducible reporter plasmid expressing the luciferase reporter gene (Zuany-Amorim, C., J., et al. Nat Rev Drug Discov, 2002. 1(10):797-807), using an optimized 4:1 ratio by volume of Fugene® HD Transfection Reagent (Roche Applied Science, Indianapolis, Ind.) to pNifty-Luc plasmid DNA (1 μg/mL). […] On day 4 after 24 hrs of peptide stimulation, luciferase induced activity by the induction of NF-κB was measured. Media was aspirated from the wells using an ELx405 Select plate washer (BioTek, Winooski, Vt.), 150 μg/mL D-luciferin (Gold Biotechnology, St. Louis, Mo.) was dispensed using the microplate dispensor; the plates were incubated at 37° C. for 5 min. The luminescence intensity was measured using the standard luminescence protocol on a Victor™ X4 plate-reader equipped with a plate stacker for readout of multiple plates at a time (PerkinElmer, Waltham, Mass.). For each in vitro TLR2 bioassay, at least three different experiments were performed in triplicate (n=3+). Data were analyzed with GraphPad Prism software and curves were generated with the appropriate nonlinear fit regression analysis.
The in vitro TLR2 functional bioassay was developed and optimized for use in high-throughput screening of soluble compound libraries to identify both TLR2 agonists and antagonists. The bioassay measures the induction of NF-κB signaling via TLR2 in HEK-293/hTLR2 cells and parental HEK-293 cells as a negative control. Cells were seeded at a density of 40,000 per well using a WellMate Microplate dispenser (Thermo Fisher Scientific/Matrix) in black 96-well plates with opaque white wells (PerkinElmer, Waltham, Mass.) and then incubated at 37° C. On day 2, the cells were transiently transfected with pNifty-Luc (InvivoGen, San Diego, Calif.), an NF-κB inducible reporter plasmid expressing the luciferase reporter gene[28] using an optimized 4:1 ratio by volume of FugeneHD Transfection Reagent (Promega, Madison, Wis.) to pNifty-Luc plasmid DNA (1 μg/mL). […] […] On day 4 after 24 h of peptide stimulation, luciferase induced activity by the induction of NF-κB was measured. Media was aspirated from the wells using an ELx405 Select CW plate washer (BioTek, Winooski, Vt.), 150 μg/mL D-luciferin (Gold Biotechnology, St. Louis, Mo.) was dispensed using the microplate dispensor; the plates were incubated at 37° C. for 5 min. The luminescence intensity was measured using the standard luminescence protocol on a Victor X4 Multilabel plate reader equipped with a plate stacker for readout of multiple plates at a time (PerkinElmer, Waltham, Mass.). […] Data were analyzed with GraphPad Prism software and curves were generated with the appropriate nonlinear fit regression analysis.

[2] = tested on: Trp1455/9M-specific CD8 T cells; assay: In vivo cellular immune response assay (immune adjuvant); set-up: species or system B6 mice; details: for in vivo immune adjuvant activity (generation and persistence of antigen-specific CD8 T cells): compared with Pam2CSK4 and Pam3CSK4
Method: To assess the efficacy of T-02 as an immune adjuvant, mice were immunized i.v. with a mixture of 100 μg optimized Trp1455/9M peptide (Guevara-Patino, J. A., et al. J Clin Invest, 2006. 116(5):1382-90), 50 μg anti-CD40 mAb (Clone; FGk-45.5), and 50 μg TLR-2 peptide (T-02, Pam2CSK4, or Pam3CSK4). […] The response of tetramer+ CD8 T cells in the blood was measured on day 7, 21, and 34 by tetramer staining. For tetramer staining, peripheral blood was taken from the submandibular vein and treated briefly with ammonium chloride buffer to lyse red blood cells. Blood cells were stained with FITC-conjugated anti-MHC class II, PerCP Cy5.5-conjugated CD8a (both from eBioscience, San Diego, Calif.), and phycoerythrin-conjugated Trp1455/9M/H-2D^b tetramers (provided by the NIH tetramer Facility, Emory University, Atlanta Ga.) for 40 min in ice. Fluorescence was evaluated using a FACSCalibur™ flow cytometer (BD Biosciences) and analyzed using FlowJo software.
C57BL/6 (B6) mice 6-8 weeks old were purchased from Charles River (Wilmington, Mass.). To assess the efficacy of 10 as an immune adjuvant, B6 mice were immunized i.v. with a mixture (in a volume of 200 μl) of 100 μg optimized Trp1455/9M peptide,[10c] 50 μg anti-CD40 monoclonal antibody (Clone; FGk-45.5), and 50 μg TLR2 agonist (10, Pam2CSK4, or Pam3CSK4). […] The response of tetramer positive CD8 T cells in the blood was measured on day 7, 21 and 34 by tetramer staining. For tetramer staining, peripheral blood was taken from the submandibular vein and treated briefly with ammonium chloride buffer to lyse red blood cells. Blood cells were stained with FITC-conjugated anti-MHC class II, PerCP Cy5.5-conjugated CD8a, and phycoerythrin-conjugated Trp1455/9M/H-2D^b tetramers for 40 min in ice. Fluorescence was evaluated using a FACSCalibur flow cytometer (BD Biosciences) and analyzed using FlowJo software.

Sequence of TLR2 (O60603 21-784): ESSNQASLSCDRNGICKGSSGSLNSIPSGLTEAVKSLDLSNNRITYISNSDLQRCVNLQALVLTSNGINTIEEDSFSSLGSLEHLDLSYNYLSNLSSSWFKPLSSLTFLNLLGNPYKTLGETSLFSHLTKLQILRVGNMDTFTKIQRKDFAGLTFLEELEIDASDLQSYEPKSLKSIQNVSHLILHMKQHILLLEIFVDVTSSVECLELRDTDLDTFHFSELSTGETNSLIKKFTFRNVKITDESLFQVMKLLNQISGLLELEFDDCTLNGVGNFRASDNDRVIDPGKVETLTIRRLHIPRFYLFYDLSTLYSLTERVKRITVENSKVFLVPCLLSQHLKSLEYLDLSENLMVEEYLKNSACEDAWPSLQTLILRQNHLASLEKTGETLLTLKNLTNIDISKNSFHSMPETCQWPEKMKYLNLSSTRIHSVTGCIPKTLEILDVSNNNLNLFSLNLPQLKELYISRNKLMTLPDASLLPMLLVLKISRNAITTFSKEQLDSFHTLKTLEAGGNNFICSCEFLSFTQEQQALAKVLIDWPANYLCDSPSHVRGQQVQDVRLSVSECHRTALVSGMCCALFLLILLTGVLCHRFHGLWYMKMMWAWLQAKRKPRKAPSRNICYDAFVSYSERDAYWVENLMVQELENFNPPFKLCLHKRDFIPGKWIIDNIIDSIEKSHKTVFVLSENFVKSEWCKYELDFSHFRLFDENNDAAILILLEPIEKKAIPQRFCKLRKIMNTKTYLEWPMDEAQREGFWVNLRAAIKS
Sequence of TLR2 (Q9Y2C9 32-796 partner): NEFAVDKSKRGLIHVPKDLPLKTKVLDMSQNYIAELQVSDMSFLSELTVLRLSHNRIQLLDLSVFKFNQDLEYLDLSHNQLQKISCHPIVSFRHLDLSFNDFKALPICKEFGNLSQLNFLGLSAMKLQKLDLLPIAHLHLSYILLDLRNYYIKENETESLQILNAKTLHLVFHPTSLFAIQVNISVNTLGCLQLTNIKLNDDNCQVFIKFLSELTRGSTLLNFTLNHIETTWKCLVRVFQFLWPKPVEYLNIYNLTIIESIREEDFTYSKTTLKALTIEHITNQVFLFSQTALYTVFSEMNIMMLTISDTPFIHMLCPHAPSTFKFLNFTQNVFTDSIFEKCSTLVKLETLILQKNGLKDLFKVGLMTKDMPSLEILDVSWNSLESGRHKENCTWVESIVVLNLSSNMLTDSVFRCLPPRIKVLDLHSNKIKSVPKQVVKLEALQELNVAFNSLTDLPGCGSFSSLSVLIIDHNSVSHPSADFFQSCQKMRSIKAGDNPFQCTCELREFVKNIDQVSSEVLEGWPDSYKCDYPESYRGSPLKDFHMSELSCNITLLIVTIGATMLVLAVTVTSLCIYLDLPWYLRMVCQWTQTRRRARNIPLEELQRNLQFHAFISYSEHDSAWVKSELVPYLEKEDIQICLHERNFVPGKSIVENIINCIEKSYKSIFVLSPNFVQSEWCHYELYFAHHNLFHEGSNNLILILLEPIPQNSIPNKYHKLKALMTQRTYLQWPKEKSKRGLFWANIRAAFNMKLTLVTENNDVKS

Compound: Ac-Aha-Dhc(Pam)2-Gly-Asn-Asn-Asp-Glu-Ser-Asn-Ile-Ser-Phe-Lys-Glu-Lys-NH2 ({Ac-Ahx-Dhc(Pam)2″}-GNNDESNISFKEK-NH2) [Compound 4]
TLR2 Agonist Activity [1]: Yes

Compound: Adapalene-Dhc(Pam)2-Gly-Asn-Asn-Asp-Glu-Ser-Asn-Ile-Ser-Phe-Lys-Glu-Lys-NH2 ({Adapalene-Dhc(Pam)2″}-GNNDESNISFKEK-NH2) [Compound 5]
TLR2 Agonist Activity [1]: Yes

Compound: Ac-Aun(C11)-Dhc(Pam)2-Gly-Asn-Asn-Asp-Glu-Ser-Asn-Ile-Ser-Phe-Lys-Glu-Lys-NH2 ({Ac-Aun(C11)-Dhc(Pam)2″}-GNNDESNISFKEK-NH2) [Compound 6]
TLR2 Agonist Activity [1]: Yes

Compound: CCCCCCCCCCCCCCCC(=O)OC[C@H](CSC[C@H](NC(=O)COCC(=O)NCCCOCCOCCOCCCNC(C)=O)C(=O)NCC(=O)N[C@@H](CO)C(=O)N[C@@H](CCC(N)=O)C(=O)N[C@@H](CC(N)=O)C(=O)N[C@@H](CC(C)C)C(=O)N[C@@H](C)C(=O)N[C@@H](CO)C(=O)N[C@@H](CC(C)C)C(=O)N[C@@H](CCC(=O)O)C(=O)N[C@@H](CCC(=O)O)C(N)=O)OC(=O)CCCCCCCCCCCCCCC [Compound 9] (X1-C(Propyl(2R-PamO,3-PamO))GSQNLASLEE-NH2)
fold of enhancement vs SAA at 1 μg/mL [1]: 13 fold
fold of enhancement vs SAA at 10 μg/mL [1]: 4.8 fold
EC50 [1]: 78.4 nM

Compound: CCCCCCCCCCCCCCCC(=O)OC[C@H](CSC[C@H](NC(=O)COCC(=O)NCCCOCCOCCOCCCNC(C)=O)C(=O)NCC(=O)N[C@@H](CC(N)=O)C(=O)N[C@@H](CC(N)=O)C(=O)N[C@@H](CC(=O)O)C(=O)N[C@@H](CCC(=O)O)C(=O)N[C@@H](CO)C(=O)N[C@@H](CC(N)=O)C(=O)N[C@H](C(=O)N[C@@H](CO)C(=O)N[C@@H](Cc1ccccc1)C(=O)N[C@@H](CCCCN)C(=O)N[C@@H](CCC(=O)O)C(=O)N[C@@H](CCCCN)C(N)=O)[C@@H](C)CC)OC(=O)CCCCCCCCCCCCCCC [Compound 3] (X1-C(Propyl(2R-PamO,3-PamO))GNNDESNISFKEK-NH2)
EC50 [1]: 55.6 nM
TLR2 Agonist Activity [1]: Yes

Compound: CCCCCCCCCCCCCCCC(=O)OCC(CSCC(NC(=O)COCC(=O)NCCCOCCOCCOCCCNC(C)=O)C(=O)NC(CO)C(=O)NC(CCCNC(=N)N)C(=O)NC(Cc1ccccc1)C(=O)NC(CC(=O)O)C(=O)NC(CCC(=O)O)C(=O)NC(CC(=O)O)C(=O)NC(CC(=O)O)C(=O)NC(CC(C)C)C(=O)NC(CCC(=O)O)C(N)=O)OC(=O)CCCCCCCCCCCCCCC (centres unmarked) [Compound 8] (X1-C(X2)SRFDEDDLE-NH2; configuration not given here)
fold of enhancement vs SAA at 1 μg/mL [1]: 11 fold
fold of enhancement vs SAA at 10 μg/mL [1]: 4.2 fold

Second part, led by results:

TLR2 agonist activity of vaccine peptide [1]: not a TLR2 agonist
Compound: Trp1455/9M: Trp1455/9M (TAPDNLGYM), H2 Db-optimized peptide from mouse tyrosinase-related protein-1, epitope for CD8 T cells [reference compound]

fold of enhancement vs SAA at 1 μg/mL [1]: 14 fold
fold of enhancement vs SAA at 10 μg/mL [1]: 5.2 fold
Compound: CCCCCCCCCCCCCCCC(=O)OC[C@H](CSC[C@H](NC(=O)COCC(=O)NCCCOCCOCCOCCCNC(C)=O)C(=O)NCC(=O)NC(CO)C(=O)NCCCOCCOCCOCCCNC(=O)COCC(N)=O)OC(=O)CCCCCCCCCCCCCCC (stereo partly drawn) [Compound 10, Ac-PEGO-Dhc(Pam)2-Gly-Ser-PEGO-NH2]
in vivo immune adjuvant activity (generation and persistence of antigen-specific CD8 T cells) [2]: stimulated the immune system by generation and persistence of antigen-specific CD8 T cells; also recorded: exhibited activity similar to the other known TLR2 agonists; also recorded: induced an in vivo immune response comparable to the currently available TLR2 synthetic agonists
in vivo immune adjuvant activity (generation and persistence of antigen-specific CD8 T cells) ([2]; listed as T-02): exhibited similar in vivo activity comparable to the TLR-2 agonists, Pam2CSK4 and Pam3CSK4
fluorescence of stained tetramer positive CD8 T cells ([2]; day 7): High fluorescence
response rate of the tetramer positive CD8 T cells ([2]; day 7): 100%
maximum amount of fluorescently stained tetramer positive CD8 T cells ([2]; day 7, peripheral blood, i.v. immunization, n=3): 49.6%
tetramer positive CD8 T cells ([2]; day 21): 25.7%
tetramer positive CD8 T cells ([2]; day 34): 12.7%

TLR2 Agonist Activity [1]: Yes
Compound: Pam-Dhc(Pam)2-Gly-Asn-Asn-Asp-Glu-Ser-Asn-Ile-Ser-Phe-Lys-Glu-Lys-NH2 ({Palmitoyl-Dhc(Pam)2″}-GNNDESNISFKEK-NH2) [Compound 1]

TLR2 Agonist Activity [1]: Yes
Compound: Fluorescein-Dhc(Pam)2-Gly-Asn-Asn-Asp-Glu-Ser-Asn-Ile-Ser-Phe-Lys-Glu-Lys-NH2 ({Fluorescein-Dhc(Pam)2″}-GNNDESNISFKEK-NH2) [Compound 2]

TLR2 Agonist Activity [1]: Yes
Compound: Tretinoin-Dhc(Pam)2-Gly-Asn-Asn-Asp-Glu-Ser-Asn-Ile-Ser-Phe-Lys-Glu-Lys-NH2 [Compound 7]
